Target: eel acetylcholinesterase (AChE) (Electrophorus electricus, UniProt O42275)
Assay: Eel AChE fluorescence assay (AMPLEX Red kit)
Assay type: biochemical
Description: Enzymatic reactions consisted of 50 μM acetylcholine, 200 μM AIVIPLEX™ Red reagent, 1 U/mL horseradish peroxidase, 0.1 U/mL choline oxidase and 0.096 U/mL acetylcholinesterase, with 30 1% DMSO. […] Control reactions lacking acetylcholinesterase but containing 5 μM H2O2 in presence of compounds were analyzed at the same wavelength to exclude compounds that display assay interference. Dose-response curves were performed in duplicate.

eel acetylcholinesterase (AChE), sequence (O42275 24-633): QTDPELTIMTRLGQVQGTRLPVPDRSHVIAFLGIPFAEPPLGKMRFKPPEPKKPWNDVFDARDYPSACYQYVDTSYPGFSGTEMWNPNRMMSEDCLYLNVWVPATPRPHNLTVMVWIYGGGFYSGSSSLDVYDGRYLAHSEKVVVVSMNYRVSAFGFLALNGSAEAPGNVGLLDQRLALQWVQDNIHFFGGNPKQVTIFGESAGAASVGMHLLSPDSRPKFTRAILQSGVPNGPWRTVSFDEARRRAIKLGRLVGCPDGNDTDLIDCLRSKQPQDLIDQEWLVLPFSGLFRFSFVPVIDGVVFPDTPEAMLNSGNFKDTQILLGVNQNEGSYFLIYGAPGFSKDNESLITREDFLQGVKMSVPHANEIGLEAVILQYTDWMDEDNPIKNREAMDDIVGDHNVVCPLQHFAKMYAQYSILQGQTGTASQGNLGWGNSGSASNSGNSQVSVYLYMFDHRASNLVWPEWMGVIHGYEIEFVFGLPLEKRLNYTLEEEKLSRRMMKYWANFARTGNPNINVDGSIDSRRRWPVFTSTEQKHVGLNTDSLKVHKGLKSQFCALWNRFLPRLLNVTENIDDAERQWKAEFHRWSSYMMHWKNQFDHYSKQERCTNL

## agelasine
Parallel dose-response with 5 μM H2O2
  assay interference test versus enzyme-free H2O2 reaction: likely represent true inhibition of the enzyme
sixteen-point serial dilution, four-parameter fit
  Hill slope, eel AChE dose-response: 0.79

Reference: US20230330045A1 (priority 2020, published 2023)
